The target of this assay is T1, human PD-1 / PD-L1-Ig binding on Jurkat cell line over-expressing human PD-1 (Jurkat-PD-1) (Homo sapiens, UniProt Q15116).
T1 construct: expressed in transfected cells; host or cells: Jurkat
The assay can be described thus: Jurkat-PD-1 Cell Binding High-Content Screening Assay (CBA). Type of assay: cell-based. Particulars: Jurkat-PD-1 cells, PE-labeled PD-L1-Ig 20 nM final; read-out: Jurkat HPD1_PDL1 IC50. The procedure, abridged: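 Jurkat cells over-expressing human PD-1, in DMEM/10% FCS, pre-incubated with compound 2 h at 37° C. PE-labeled human PD-L1-Ig (20 nM final) added for 1 h; cells fixed in paraformaldehyde with Hoechst 33342 nuclear stain, washed, and bound fluorescence quantified by high-content imaging.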

*1 amine or outer side, *2 acyl side, *3 side chain or, on linkers, in order; H or OH if unused. Where a SMILES comes first, the peptide text is derived from it. Bridges are numbered along the chain shown (N, C = ends). [ ]: non-standard residue; d: D form. The star is where a group is joined. ξ: configuration not given here. Phe(3-CH2NH2) = O=C([C@H](Cc1cccc(CN[*:3])c1)N[*:1])[*:2]; Phe(3-CF3) = N[C@@H](Cc1cccc(C(F)(F)F)c1)C(=O)O; Ala(morpholin-4-yl) = N[C@@H](CN1CCOCC1)C(=O)O; Phe(4-COOH) = N[C@@H](Cc1ccc(C(=O)O)cc1)C(=O)O; Bip = N[C@@H](Cc1ccc(-c2ccccc2)cc1)C(=O)O; Phe(4-Br) = N[C@@H](Cc1ccc(Br)cc1)C(=O)O; Phe(4-CN) = N#Cc1ccc(C[C@H](N)C(=O)O)cc1; Phe(3-F) = N[C@@H](Cc1cccc(F)c1)C(=O)O; Phe(3-Me) = Cc1cccc(C[C@H](N)C(=O)O)c1; Val(3-OH) = CC(C)(O)[C@H](N)C(=O)O; 4Pal = N[C@@H](Cc1ccncc1)C(=O)O; 3Thi = N[C@@H](Cc1ccsc1)C(=O)O; Cha = N[C@@H](CC1CCCCC1)C(=O)O; Cit = NC(=O)NCCC[C@H](N)C(=O)O; Ile(3ξ) = CCC(C)[C@H](N)C(=O)O; dCha = N[C@H](CC1CCCCC1)C(=O)O; Carboxymethyl = O=C(O)C*; Orn = NCCC[C@H](N)C(=O)O; Pra = C#CC[C@H](N)C(=O)O; Dab = NCC[C@H](N)C(=O)O; Dap = NC[C@H](N)C(=O)O; Propargyl = C#CC*

T1 sequence (Q15116 25-288): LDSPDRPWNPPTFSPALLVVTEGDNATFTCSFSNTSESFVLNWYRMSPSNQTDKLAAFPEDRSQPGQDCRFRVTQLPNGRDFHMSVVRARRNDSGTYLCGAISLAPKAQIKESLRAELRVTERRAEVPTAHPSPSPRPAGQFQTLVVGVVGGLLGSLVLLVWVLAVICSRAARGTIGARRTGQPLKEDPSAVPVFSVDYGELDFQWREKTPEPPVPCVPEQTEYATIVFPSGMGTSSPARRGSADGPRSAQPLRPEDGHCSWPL

For orientation: IC50 means the midpoint of a concentration-inhibition curve. On to `C#CC[C@H](NC(=O)[C@@H]1CSCC(=O)N[C@@H](CCN)C(=O)N[C@@H](Cc2ccc(OCC(=O)O)cc2)C(=O)N[C@@H](CC(=O)O)C(=O)N[C@@H](Cc2cccc(C)c2)C(=O)N[C@@H](Cc2ccc(OCC(=O)O)cc2)C(=O)N[C@@H](Cc2ccc(-c3ccccc3)cc2)C(=O)N[C@@H](Cc2ccc(OCC(=O)O)cc2)C(=O)N[C@@H](CCCN)C(=O)N[C@H](CC(C)C)C(=O)N[C@@H](CCN)C(=O)N[C@@H](CC2CCCCC2)C(=O)N[C@@H](C(C)(C)O)C(=O)N[C@@H](CCCN)C(=O)N1)C(=O)O` [Compound 2686] ({CH2CO}-[Dab]Y(Carboxymethyl)D[Phe(3-Me)]Y(Carboxymethyl)[Bip]Y(Carboxymethyl)[Orn][dL][Dab][Cha][Val(3-OH)][Orn]C[Pra]-OH; thioether N-14), for which the IC50 stood at 33.3 nM.
As to `CCCC[C@H]1NC(=O)[C@H](CCCN)NC(=O)[C@H](CCCNC(N)=O)NC(=O)[C@H](Cc2ccc(-c3ccccc3)cc2)NC(=O)[C@H](C(C)C)NC(=O)[C@H](Cc2c[nH]c3ccccc23)NC(=O)[C@H](CC(=O)O)NC(=O)[C@H](Cc2ccc(OCC(=O)O)cc2)NC(=O)[C@H](CN)NC(=O)CSC[C@@H](C(=O)N[C@@H](C)C(N)=O)NC(=O)[C@H]([C@@H](C)O)NC(=O)[C@H](C(C)C)NC(=O)[C@H](CC2CCCCC2)NC(=O)[C@H](CCN)NC1=O` [Compound 1700], the IC50 was 21.4 nM.
In the case of `C#CCOc1ccc(C[C@@H]2NC(=O)[C@H](C(C)C)NC(=O)[C@H](CC3CCCCC3)NC(=O)[C@H](CCN)NC(=O)[C@@H](CC(C)C)NC(=O)[C@H](CCCN)NC(=O)[C@H](Cc3ccc(OCC(=O)O)cc3)NC(=O)[C@H](Cc3ccc(-c4ccccc4)cc3)NC(=O)[C@H](Cc3ccc(OCC(=O)O)cc3)NC(=O)[C@H](Cc3cccc(C)c3)NC(=O)[C@H](CC(=O)O)NC(=O)[C@H](Cc3ccc(OCC(=O)O)cc3)NC(=O)[C@H](Cc3cnc[nH]3)NC(=O)CSC[C@@H](C(=O)N[C@@H](CCN)C(N)=O)NC2=O)cc1` [Compound 1813] ({CH2CO}-HY(Carboxymethyl)D[Phe(3-Me)]Y(Carboxymethyl)[Bip]Y(Carboxymethyl)[Orn][dL][Dab][Cha]VY(Propargyl)C[Dab]-NH2; thioether N-14), the IC50 turned out to be 0.7 nM.
Regarding `Cc1cccc(C[C@@H]2NC(=O)[C@H](CC(=O)O)NC(=O)[C@H](Cc3ccc(C(=O)O)cc3)NC(=O)[C@H](Cc3ccsc3)NC(=O)CSC[C@@H](C(=O)N[C@@H](CCN)C(N)=O)NC(=O)[C@H](CO)NC(=O)[C@H](C(C)(C)O)NC(=O)[C@H](CC3CCCCC3)NC(=O)[C@H](CCN)NC(=O)[C@@H](CC(C)C)NC(=O)[C@H](CCCN)NC(=O)[C@H](Cc3ccc(C(=O)O)cc3)NC(=O)[C@H](Cc3ccc(-c4ccccc4)cc3)NC(=O)[C@H](Cc3ccc(OCC(=O)O)cc3)NC2=O)c1` [Compound 2660] ({CH2CO}-[3Thi][Phe(4-COOH)]D[Phe(3-Me)]Y(Carboxymethyl)[Bip][Phe(4-COOH)][Orn][dL][Dab][Cha][Val(3-OH)]SC[Dab]-NH2; thioether N-14), the IC50 stood at 3.9 nM.
To `C#CC[C@H](NC(=O)CNC(=O)[C@@H]1CSCC(=O)N[C@@H](CCN)C(=O)N[C@@H](Cc2ccc(OCC(=O)O)cc2)C(=O)N[C@@H](CC(=O)O)C(=O)N[C@@H](Cc2c[nH]c3ccccc23)C(=O)N[C@@H](C(C)C)C(=O)N[C@@H](Cc2ccc(-c3ccccc3)cc2)C(=O)N[C@@H](C(C)CC)C(=O)N[C@@H](CCCN)C(=O)N[C@H](CC(C)C)C(=O)N[C@@H](CCN)C(=O)N[C@@H](CC2CCCCC2)C(=O)N[C@@H](C(C)(C)O)C(=O)N[C@@H](CO)C(=O)N1)C(=O)O` (stereo partly drawn) [Compound 2322] ({CH2CO}-[Dab]Y(Carboxymethyl)DWV[Bip][Ile(3ξ)][Orn][dL][Dab][Cha][Val(3-OH)]SCG[Pra]-OH; thioether N-14) belongs 76.8 nM; to `CC(C)[C@@H]1NC(=O)[C@H](Cc2c[nH]c3ccccc23)NC(=O)[C@H](CC(=O)O)NC(=O)[C@H](Cc2ccc(C(=O)O)cc2)NC(=O)[C@H](Cc2ccncc2)NC(=O)CSC[C@@H](C(=O)N[C@@H](C)C(N)=O)NC(=O)[C@H]([C@@H](C)O)NC(=O)[C@H](C(C)C)NC(=O)[C@H](CC2CCCCC2)NC(=O)[C@H](CCN)NC(=O)[C@@H](CC2CCCCC2)NC(=O)[C@H](CCCN)NC(=O)[C@H](CCCNC(N)=O)NC(=O)[C@H](Cc2ccc(-c3ccccc3)cc2)NC1=O` [Compound 1640] ({CH2CO}-[4Pal][Phe(4-COOH)]DWV[Bip][Cit][Orn][dCha][Dab][Cha]VTCA-NH2; thioether N-14), 25.7 nM; to `CC(C)C[C@H]1NC(=O)[C@H](CCCN)NC(=O)[C@H](CCCNC(N)=O)NC(=O)[C@H](Cc2ccc(-c3ccccc3)cc2)NC(=O)[C@H](C(C)C)NC(=O)[C@H](Cc2c[nH]c3ccccc23)NC(=O)[C@H](CC(=O)O)NC(=O)[C@H](Cc2ccc(C#N)cc2)NC(=O)[C@H](CN)NC(=O)CSC[C@@H](C(=O)N[C@@H](C)C(N)=O)NC(=O)[C@H]([C@@H](C)O)NC(=O)[C@H](C(C)C)NC(=O)[C@H](CC2CCCCC2)NC(=O)[C@H](CCN)NC1=O` [Compound 2101] ({CH2CO}-[Dap][Phe(4-CN)]DWV[Bip][Cit][Orn][dL][Dab][Cha]VTCA-NH2; thioether N-14), 6.6 nM.
Consider `CC(C)C[C@H]1NC(=O)[C@H](CCCN)NC(=O)[C@H](CCCNC(N)=O)NC(=O)[C@H](Cc2ccc(-c3ccccc3)cc2)NC(=O)[C@H](C(C)C)NC(=O)[C@H](Cc2c[nH]c3ccccc23)NC(=O)[C@H](CC(=O)O)NC(=O)[C@H](Cc2ccc(OCC(=O)O)cc2)NC(=O)[C@H](Cc2ccc(OCC(=O)O)cc2)NC(=O)CSC[C@@H](C(=O)N[C@@H](C)C(N)=O)NC(=O)[C@H]([C@@H](C)O)NC(=O)[C@H](C(C)C)NC(=O)[C@H](Cc2cccc(F)c2)NC(=O)[C@H](CCN)NC1=O` [Compound 1676] ({CH2CO}-Y(Carboxymethyl)Y(Carboxymethyl)DWV[Bip][Cit][Orn][dL][Dab][Phe(3-F)]VTCA-NH2; thioether N-14), for which the IC50 is 22.2 nM.
For the compound `CC(C)C[C@@H]1NC(=O)[C@H](Cc2c[nH]c3ccccc23)NC(=O)[C@H](CC(=O)O)NC(=O)[C@H](Cc2ccc(O)cc2)NC(=O)[C@H](Cc2ccccc2)NC(=O)CSC[C@@H](C(=O)N[C@@H](C)C(N)=O)NC(=O)[C@H]([C@@H](C)O)NC(=O)[C@H](C(C)C)NC(=O)[C@H](CC(C)C)NC(=O)[C@H](CC(N)=O)NC(=O)[C@@H](CC(C)C)NC(=O)[C@H](CCCN)NC(=O)[C@H](C(C)C)NC(=O)[C@H](Cc2ccc(-c3ccccc3)cc2)NC1=O` [Compound 1066] ({CH2CO}-FYDWL[Bip]V[Orn][dL]NLVTCA-NH2; thioether N-14), the IC50 stood at 42.2 nM.
As for `CC(C)C[C@H]1NC(=O)[C@H](CCCN)NC(=O)[C@H](Cc2ccc(C(=O)O)cc2)NC(=O)[C@H](Cc2ccc(-c3ccccc3)cc2)NC(=O)[C@H](Cc2ccc(Br)cc2)NC(=O)[C@H](Cc2cccc(C(F)(F)F)c2)NC(=O)[C@H](CC(=O)O)NC(=O)[C@H](Cc2ccc(C(=O)O)cc2)NC(=O)[C@H](CN2CCOCC2)NC(=O)CSC[C@@H](C(=O)N[C@@H](CCN)C(N)=O)NC(=O)[C@H](CCC(=O)O)NC(=O)[C@H](C(C)C)NC(=O)[C@H](CC2CCCCC2)NC(=O)[C@H](CCN)NC1=O` [Example 2750] ({CH2CO}-[Ala(morpholin-4-yl)][Phe(4-COOH)]D[Phe(3-CF3)][Phe(4-Br)][Bip][Phe(4-COOH)][Orn][dL][Dab][Cha]VEC[Dab]-NH2; thioether N-14), the IC50 is 200 nM.
Turning to `CC(C)C[C@H]1NC(=O)[C@H](CCCN)NC(=O)[C@H](CCC(=O)O)NC(=O)[C@H](Cc2ccc(-c3ccccc3)cc2)NC(=O)[C@H](C(C)C)NC(=O)[C@H](Cc2c[nH]c3ccccc23)NC(=O)[C@H](CC(=O)O)NC(=O)[C@H](Cc2ccc(OCC(=O)O)cc2)NC(=O)[C@H](CN)NC(=O)CSC[C@@H](C(=O)N[C@@H](C)C(N)=O)NC(=O)[C@H]([C@@H](C)O)NC(=O)[C@H](C(C)C)NC(=O)[C@H](Cc2cccc(CN)c2)NC(=O)[C@H](CCN)NC1=O` [Compound 1508] ({CH2CO}-[Dap]Y(Carboxymethyl)DWV[Bip]E[Orn][dL][Dab][Phe(3-CH2NH2)]VTCA-NH2; thioether N-14), the IC50 stood at 163 nM.
To `CC(C)C[C@@H]1NC(=O)[C@H](CCN)NC(=O)[C@@H](CC(C)C)NC(=O)[C@H](CCN)NC(=O)[C@H](CCC(=O)O)NC(=O)[C@H](Cc2ccc(-c3ccccc3)cc2)NC(=O)[C@H](C(C)C)NC(=O)[C@H](Cc2c[nH]c3ccccc23)NC(=O)[C@H](CC(=O)O)NC(=O)[C@H](Cc2ccc(OCC(=O)O)cc2)NC(=O)[C@H](Cc2ccncc2)NC(=O)CSC[C@@H](C(=O)N[C@@H](C)C(N)=O)NC(=O)[C@H](CO)NC(=O)[C@H](C(C)C)NC1=O` [Compound 1266] ({CH2CO}-[4Pal]Y(Carboxymethyl)DWV[Bip]E[Dab][dL][Dab]LVSCA-NH2; thioether N-14) belongs 29.6 nM.
For `CC(C)C[C@@H]1NC(=O)[C@H](Cc2c[nH]c3ccccc23)NC(=O)[C@H](CC(=O)O)NC(=O)[C@H](Cc2ccc(O)cc2)NC(=O)[C@H](Cc2ccccc2)NC(=O)CSC[C@@H](C(=O)NCC(N)=O)NC(=O)[C@H](CO)NC(=O)[C@H](C(C)C)NC(=O)[C@H](CC(C)C)NC(=O)[C@H](CCN)NC(=O)[C@@H](CC(C)C)NC(=O)[C@H](CCN)NC(=O)[C@H](C(C)C)NC(=O)[C@H](Cc2ccc(-c3ccccc3)cc2)NC1=O` [Compound 1063] ({CH2CO}-FYDWL[Bip]V[Dab][dL][Dab]LVSCG-NH2; thioether N-14), the IC50 is 19.8 nM.
For the compound `CC(C)C[C@H]1NC(=O)[C@H](CCCN)NC(=O)[C@H](C(C)C)NC(=O)[C@H](Cc2ccc(-c3ccccc3)cc2)NC(=O)[C@H](C(C)C)NC(=O)[C@H](Cc2c[nH]c3ccccc23)NC(=O)[C@H](CC(=O)O)NC(=O)[C@H](Cc2ccc(OCC(=O)O)cc2)NC(=O)[C@H](CN)NC(=O)CSC[C@@H](C(=O)N[C@@H](C)C(N)=O)NC(=O)[C@H](Cc2cnc[nH]2)NC(=O)[C@H](C(C)C)NC(=O)[C@H](CC2CCCCC2)NC(=O)[C@H](CCN)NC1=O` [Compound 1750] ({CH2CO}-[Dap]Y(Carboxymethyl)DWV[Bip]V[Orn][dL][Dab][Cha]VHCA-NH2; thioether N-14), the IC50 stood at 11.3 nM.

For the origin of these results see patent US20250163104A1, “MACROCYCLIC IMMUNOMODULATORS” (priority 2021, published 2025).
